# Read-outs that look alike come from different tables or passages of the source.
# Key:
# [1] = test system: hMPV; assay: Ribavirin as a prophylactic: hMPV infected Vero cells counted by immune fluorescence; assay type: cell-based, Human Metapneumovirus; conditions: for reduction in number of infected cells: pre-incubation 2 h before infection, 100 TCID50 hMPV, day 1 post-infection, Vero cells
# Protocol: (§1) Vero cells (African green monkey kidney cells) were maintained and passaged in Iscove's Modified Dulbecco's Medium (IMDM) containing L-glutamine (2 mM), penicillin (100 U/ml), streptomycin (100 μg/ml) and 10% fetal calf serum (FCS) and incubated in a humidified atmosphere at 37° C. Virus infection medium contained bovine serum albumin (BSA; 0.3%) and trypsin (2.5×10^−4%) instead of FCS. Human Metapneumovirus stocks were prepared by inoculating Vero cells with hMPV, and harvesting 7-10 days post-infection, when there were visible cytopathic effects. The virus was stored at −70° C. and titrated by end point dilution on Vero cells.
# One day prior to infection, the cells were seeded in 24 well plates at 30-40% confluency, and incubated overnight at 37° C. The next day, cells were pre-incubated with fresh medium containing 0, 5, 25 or 50 μg/ml of Ribavirin for 2 hours prior to virus infection. Following this pre-incubation, cells were infected with 10 or 100 TCID50 (tissue culture infectious doses) of hMPV, in the continuing presence of Ribavirin. After 2 hours, the virus inoculum was washed off and fresh medium containing Ribavirin was put onto the cells.
# (§2) The plates were incubated at 37° C. for 1 or 3 days. Medium was refreshed every second day and Ribavirin was maintained in the medium at all times at the appropriate concentration. After the indicated incubation period, medium was removed, the cells were washed with PBS and cells were fixed with 80% acetone. Staining for immune fluorescence analysis was performed by incubating infected cells with guinea pig anti-hMPV serum in PBS for 1 hour, followed by a FITC-labeled rabbit anti-guinea pig polyclonal antibody preparation (DAKO) in PBS for 1 hour. Background staining was finally performed with eriochrome black before analysis under an immune fluorescence microscope. Infected cells were counted in 5 fields under high power magnification (320×). Results are presented as the total number of infected cells counted in these 5 fields
# [2] = test system: hMPV; assay: Ribavirin as a therapeutic (added post-infection): hMPV infected Vero cells counted by immune fluorescence; assay type: cell-based, Human Metapneumovirus; conditions: for inhibition at 25 µg/mL: human metapneumovirus, Vero, read-out: inhibition of viral replication
# Protocol: Percentage of cells infected with hMPV. Cells were infected with 30 TCID50 of hMPV and after 0, 2, 4, 8 and 16 hours, post-infection, 0, 5, 10, 25, 50 or 100 microgram of Ribavirin was added. Three days post-infection, cells were fixed and stained with a hMPV-specific polyclonal antibody, and the number of hMPV positive and negative cells were counted in 5 fields.
# as §1
# Cells were seeded in 24 well plates as described above. The next day, cells were inoculated with 10 or 100 TCID50 of hMPV in the absence of Ribavirin. Two hours post-infection, the supernatant was aspirated and the cells were washed in phosphate-buffered saline (PBS) to remove virus inoculum. Fresh medium was added and the cells were incubated at 37° C. At different time points (2, 4, 8 and 16 hours) after infection, Ribavirin was added to the cells to reach concentrations of 0, 5, 25 or 50 μg/ml.
# as §2
# [3] = test system: hMPV strain NL/01/00; assay: Inhibition of hMPV by Ribavirin and neutralizing antibodies in Vero cells (immunofluorescence, estimated percentages of infected cells); assay type: cell-based, Human Metapneumovirus
# Protocol: Passaging and seeding Vero cells (clone 118) was done in standard DMEM medium, supplemented with 10% FCS, L-glutamin and antibiotics (penicillin and streptomycin). Cells were seeded approximately 1:4 in 48 wells plates, so that cells would be ±75% confluent the next day. Infecting cells was done in IMDM medium with […], Pen/Strep and L-glutamin.
# […]. Plates were finally spun at 1500 g for 5 minutes and incubated at 37C in a humidified atmosphere for 3 days. After 3 days, from duplicate wells of each experimental condition the cells and supernatant were harvested and frozen at −70 C. Aliquots from these virus cultures were used for RNA isolation and subsequent quantification of viral genomic copy numbers by real-time RT-PCR on a TAQMAN® machine. The other duplicate wells from each experimental condition were stained for hMPV by immunofluorescence and numbers of infected cells were counted under a fluorescence microscope. Briefly, cells were washed with PBS and fixed with 80% acetone, washed again and subsequently incubated with a guinea pig anti-hMPV serum. After removal of the antiserum, cells were incubated with a FITC-labeled rabbit-anti-guinea pig polyclonal antibody preparation, washed and analyzed.
# Note: Indicated results are estimated percentages of infected cells. Viral genomic copy numbers remain to be determined by taqman analyses (to be done this week)
# [4] = test system: PIV type 3 (PIV3); conditions: cited from earlier work
smiles,measurement,setting,value
NC(=O)c1ncn([C@@H]2O[C@H](CO)[C@@H](O)[C@H]2O)n1 [Ribavirin],reduction in number of infected cells,[1]; 25 μg/ml Ribavirin,approximately 50%
same,decrease in the number of infected cells,[1]; 50 μg/ml Ribavirin added 2 hrs prior to or at the same time as virus infection,up to 95%
same,reduction in number of infected cells,[1]; 50 μg/ml Ribavirin,approximately 95%
same,effect on number of infected cells compared with day 1,"[1]; day 3 after infection, cells infected with 10 or 100 TCID50",same effect
same,inhibition of viral replication,"[2]; Ribavirin 25 μg/ml added after 16 hrs, read 3 days post-infection",insignificantly
same,reduction of infection,"[2]; Ribavirin 100 μg/ml added 8 hrs post-infection, read 3 days post-infection",80%
same,reduction of infection,"[2]; Ribavirin 100 μg/ml added 16 hrs post-infection, read 3 days post-infection",50%
same,reduction of infection,"[2]; Ribavirin 100 μg/ml added at 0, 2 or 4 hours post-infection, read 3 days post-infection",95%
same,percentage of MPV-positive cells,"[2]; Ribavirin 25 microgram/ml or higher, added 0-16 hours after infection, 3 days post-infection",greatly reduced
same,concentration of Ribavirin needed to see a significant effect,[2]; added 8 or 16 hrs post-infection,100 µg/mL
same,inhibition at 25 µg/mL,"[2]; Ribavirin 25 μg/ml added 4 or 8 hrs post-infection, read 3 days post-infection",10%
same,inhibition at 25 µg/mL,"[2]; Ribavirin 25 μg/ml added at 0 or 2 hrs post-infection, read 3 days post-infection",50%
same,effect on the growth of hMPV in vero cells in vitro,"[3]; FIG. 3, 50 or 250 TCID50",profound effect
same,inhibition at 25 µg/mL,"[3]; human metapneumovirus, Vero, 72 h, read-out: inhibition of viral proliferation",~90%
same,improvement in outcome,"[4]; Elizaga et al.: 18 of 24 PIV3 patients treated, starting three days after onset of symptoms",no improvement in outcome was observed
same,viral shedding of treated and untreated patients,[4]; Nichols et al.: 31 of 55 patients with PIV3 pneumonia treated within 48 hours of diagnosis,similar
